The values below come from patent publication US20100075907A1, “NEUROMEDIN U RECEPTOR AGONISTS AND USES THEREOF” (priority 2006, published 2010).

No end group written: not given here. Bounds are passed on as bounds.

In general, IC50 refers to the concentration that inhibits the measured activity by half.

The target in this assay is hNMUR2 (Homo sapiens, UniProt Q9GZQ4). Briefly: In vitro functional assay, HEK-hR2 cells. The note with it: Table 8, HEK-hR2, functional. Details: expressed in transfected cells; host or cells: FLP-In CHO or HEK-293 FLP-In cells (pcDNA5); HEK-293/aeq17 lines (pcDNA3.1) were also made; % Activity: concentration or dose not given beside the values. The assay is classed as cell-based. The source says: Human, mouse or rat cDNAs encoding NMUR1 or NMUR2 (as described in Howard et al. Nature 406: 70-74 (2000) were subcloned in pcDNA5 (Invitrogen) and transfected into FLP-In CHO cells and HEK-293 FLP-In cells purchased from Invitrogen (Carlsbad, Calif.) using lipofectamine (Invitrogen). The Flp-In system allows integration and expression of a particular gene of interest at a specific genomic location utilizing the Flp recombinase from yeast. The transfected cells were selected by growth in medium containing 200 μg/mL hygromycin (Invitrogen). Populations were frozen at early passage numbers, and these stocks were used for further studies. Stable clones that expressed the mRNAs were identified functionally by FLIPR as well as by RT-PCR. […] Two different rodent NMUR1 cell lines were thus generated: one with the codon as predicted from the genomic databases and another cell line with an engineered methionine (ATG) as the start codon. Additionally, stable cell lines expressing the human receptors were generated in HEK-293/aeq17 cells which stably express the aequorin gene under the CMV promoter. The human NMUR2 cDNA was cloned into pcDNA3.1 and human NMUR1 was subcloned into pIRES-puro (Clontech, Mountain View, Calif.), after transfection cells were selected in media containing G418 and either hygromycin (NMUR2) or puromycin (NMUR1).
Sequence of hNMUR2 (Q9GZQ4 whole entry): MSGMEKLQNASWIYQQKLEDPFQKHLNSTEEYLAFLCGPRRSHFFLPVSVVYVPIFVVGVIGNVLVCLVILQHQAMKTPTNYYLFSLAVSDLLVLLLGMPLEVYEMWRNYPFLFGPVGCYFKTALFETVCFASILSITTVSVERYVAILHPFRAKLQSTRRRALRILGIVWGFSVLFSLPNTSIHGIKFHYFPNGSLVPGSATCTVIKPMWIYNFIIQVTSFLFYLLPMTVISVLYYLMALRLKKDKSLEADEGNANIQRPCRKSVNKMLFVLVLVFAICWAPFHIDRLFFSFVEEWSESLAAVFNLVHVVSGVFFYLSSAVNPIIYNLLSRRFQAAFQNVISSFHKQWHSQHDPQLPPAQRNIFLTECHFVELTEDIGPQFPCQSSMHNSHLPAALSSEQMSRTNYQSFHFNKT
The NMU receptors signal primarily through Gαq/11 proteins; therefore calcium mobilization assays can be utilized for functional activity.
Stable cell lines expressing human and or rodent NMUR1 or human NMUR2 receptors were plated at a density of 12,000 cells per well overnight on poly-lysine coated 384-well black-walled plates. The following day, the media was removed from the plates and the cells were subsequently loaded with Fluo-3 (Molecular Probes), a calcium sensitive dye, diluted in FLIPR buffer (1× Hank's buffered saline containing 20 mM HEPES, 0.1% BSA, 2.5 mM probenecid (Sigma) and 1.6 mM TR40). All reagents are from Invitrogen unless otherwise noted. Peptide stocks were resuspended in DMSO at a stock concentration of 2 mM and diluted in FLIPR buffer on the day of the experiment to a 4 μM working stock solution.
After a 90 minute incubation at room-temperature, cell plates were loaded onto a FLIPR (Molecular Devices) to monitor cellular fluorescence (excitation=488 nm; emission=540 nm) before and after compound/peptide addition. Eight to twelve point dose responses were tested on NMUR-expressing cell lines using FLIPR with 1 μM peptide as the highest dose. The response after peptide addition was taken as the maximum fluorescence units minus the fluorescence immediately prior to stimulation for each well. EC50 values were calculated using GraphPad Prism (San Diego, Calif.) software.
In addition to FLIPR, NMU receptor function can also be evaluated using an aequorin assay. Stable cell lines expressing the aequorin jelly fish gene can be used to report the activation of GPCRs by monitoring intracellular calcium mobilization. The objective is to identify compounds which specifically stimulate aequorin bioluminescence. Calcium-dependent luminescence is generated by the treatment of cells with the coelenterate luciferin, coelenterazine. Briefly, confluent monolayers of HEK-293/aeq 17 cells expressing hNMUR1 or hNMUR2 are “charged” with coelenterazine (Molecular Probes, Carlsbad, Calif.). Confluent T75 flasks are rinsed with media containing 300 μM glutathione and 0.1% FBS. Cells are incubated at 37° C. for one hour in 8 mL media, 0.1% FBS, 300 μM glutathione, and 20 μM coelenterazine. T75 flasks are subsequently rinsed with 6 mL ECB buffer (140 mM NaCl, 20 mM KCl, 20 mM HEPES, 5 mM glucose, 1 mM MgCl, 1 mM CaCl2, 0.1 mg/mL BSA, PH 7.3-7.4). Cells are removed from the flask in ECB buffer, pelleted, and resuspended at a density of 2×10^5 cells/mL. Agonists are added to the cells and activity is determined using a luminometer.

YFWRPRN-NH2 [Agonist A, YFWRPRN-CONH2]: the “% Activity” value came out at 0% and the IC50 is over 1000 nM.
